Drawing on patent US20250367166A1, “NEXT GENERATION DIPROVOCIMS THAT ACTIVATE THE INNATE AND ADAPTIVE IMMUNE RESPONSE” (The Scripps Research Institute, priority 2022, published 2025), this text covers Emax and EC50 for five compounds.

Some results are limits rather than exact numbers.

Assay [1] concerns the target TLR1/TLR2 (Homo sapiens, UniProt O60603+Q15399). The assay can be described thus: TNF-α release from PMA-differentiated human THP-1 cells (ELISA).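 On all read-outs here: cells exposed to graded compound concentrations for 4 h, TNF-α quantified in supernatant, LPS as positive and DMSO as negative control, values are duplicate means.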 Particulars: for Emax: THP-1, 4 h, read-out: Efficacy (magnitude) of response versus diprovocim-1 (100%), THP-1; for EC50: read-out: EC50 (nM) (THP-1): EC50 TNF-α release from human THP-1 cells, Table 6. (In general: ELISA stands for enzyme-linked immunosorbent assay.)
Experimental: THP-1 (American Type Culture Collection) cells, a human monocytic leukemia cell line, were differentiated by treatment with 100 nM PMA (Sigma) in Roswell Park Memorial Institute (RPMI) cell culture medium [RPMI containing 10% vol/vol FBS (Gemini Bio Products), 1% penicillin and streptomycin (Life Technologies)] for 24 h. After that, the cells were washed with PBS and cultured in fresh RPMI cell culture medium for 24 h before use in studies. PMA-differentiated THP-1 cells were seeded onto 96-well plates at 0.5×10^5 cells per well and treated with systematically varied concentrations of the candidate compounds (dissolved in DMSO, and the final assay DMSO concentration (0.1%) was kept constant in all experiments) for 4 h. Ultra-pure LPS (dissolved in H2O, Enzo Life Sciences) was assessed alongside the compounds as a positive control and DMSO treated control was used as a negative control. Human TNF-α in the supernatants was measured by ELISA (eBioscience). This assay was used for establishing dose-response curves and measured EC50's. EC50's were calculated by Graphpad Prism. All data is the mean of duplicates and SD is within +10% of mean.

Assay [2] concerns the target TLR1/TLR2 (Mus musculus, UniProt Q9EPQ1+Q9QUN7). Description: TNF-α release from thioglycolate-elicited mouse peritoneal macrophages (ELISA). The conditions noted are these: for Emax: 4 h, read-out: Efficacy (magnitude) of response versus diprovocim-1 (100%), mouse macrophages; for EC50: read-out: EC50 (nM) (mouse): EC50 TNF-α release from mouse macrophages, Table 6.

Chain of TLR1/TLR2 (Homo sapiens, UniProt O60603+Q15399) (Q15399 25-786): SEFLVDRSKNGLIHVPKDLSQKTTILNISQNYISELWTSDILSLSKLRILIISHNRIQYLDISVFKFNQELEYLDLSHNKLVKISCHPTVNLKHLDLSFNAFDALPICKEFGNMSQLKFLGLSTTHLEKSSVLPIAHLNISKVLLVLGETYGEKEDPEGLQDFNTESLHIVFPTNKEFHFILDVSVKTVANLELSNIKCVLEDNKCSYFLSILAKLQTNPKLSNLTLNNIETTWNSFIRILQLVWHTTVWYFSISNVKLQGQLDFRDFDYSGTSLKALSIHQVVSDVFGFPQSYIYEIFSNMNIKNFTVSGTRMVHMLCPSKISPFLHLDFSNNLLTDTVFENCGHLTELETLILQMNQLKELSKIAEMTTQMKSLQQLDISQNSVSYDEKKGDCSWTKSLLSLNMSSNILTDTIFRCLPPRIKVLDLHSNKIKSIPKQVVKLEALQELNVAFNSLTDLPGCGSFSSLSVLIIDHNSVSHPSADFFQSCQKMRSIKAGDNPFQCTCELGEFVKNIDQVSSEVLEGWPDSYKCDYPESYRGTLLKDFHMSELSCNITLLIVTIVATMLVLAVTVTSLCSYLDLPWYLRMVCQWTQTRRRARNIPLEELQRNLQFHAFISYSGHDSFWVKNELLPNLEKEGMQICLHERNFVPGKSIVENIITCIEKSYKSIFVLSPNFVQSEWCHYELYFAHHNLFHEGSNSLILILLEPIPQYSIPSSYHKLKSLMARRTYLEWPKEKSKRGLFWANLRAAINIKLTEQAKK
Chain of TLR1/TLR2 (Homo sapiens, UniProt O60603+Q15399) (O60603 21-784): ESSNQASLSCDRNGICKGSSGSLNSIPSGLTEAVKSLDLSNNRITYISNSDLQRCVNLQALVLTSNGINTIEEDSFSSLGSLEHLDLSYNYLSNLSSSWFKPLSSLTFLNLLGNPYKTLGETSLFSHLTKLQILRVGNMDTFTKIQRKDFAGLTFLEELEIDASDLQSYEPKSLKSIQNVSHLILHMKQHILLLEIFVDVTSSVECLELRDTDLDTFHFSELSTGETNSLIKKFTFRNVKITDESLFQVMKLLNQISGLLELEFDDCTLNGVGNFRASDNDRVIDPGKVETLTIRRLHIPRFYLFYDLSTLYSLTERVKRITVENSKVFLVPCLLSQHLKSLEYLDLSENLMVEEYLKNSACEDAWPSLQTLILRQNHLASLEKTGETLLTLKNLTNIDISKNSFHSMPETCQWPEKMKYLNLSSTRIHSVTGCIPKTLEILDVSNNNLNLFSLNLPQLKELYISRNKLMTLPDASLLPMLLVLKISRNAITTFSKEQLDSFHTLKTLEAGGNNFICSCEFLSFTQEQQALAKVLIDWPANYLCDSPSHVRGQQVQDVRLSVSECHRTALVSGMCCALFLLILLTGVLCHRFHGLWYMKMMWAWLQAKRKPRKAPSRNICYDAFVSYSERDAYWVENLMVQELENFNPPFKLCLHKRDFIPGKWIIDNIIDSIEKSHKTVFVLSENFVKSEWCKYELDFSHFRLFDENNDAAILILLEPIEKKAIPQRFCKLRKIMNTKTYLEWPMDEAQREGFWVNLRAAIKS
Chain of TLR1/TLR2 (Mus musculus, UniProt Q9EPQ1+Q9QUN7) (Q9EPQ1 26-795): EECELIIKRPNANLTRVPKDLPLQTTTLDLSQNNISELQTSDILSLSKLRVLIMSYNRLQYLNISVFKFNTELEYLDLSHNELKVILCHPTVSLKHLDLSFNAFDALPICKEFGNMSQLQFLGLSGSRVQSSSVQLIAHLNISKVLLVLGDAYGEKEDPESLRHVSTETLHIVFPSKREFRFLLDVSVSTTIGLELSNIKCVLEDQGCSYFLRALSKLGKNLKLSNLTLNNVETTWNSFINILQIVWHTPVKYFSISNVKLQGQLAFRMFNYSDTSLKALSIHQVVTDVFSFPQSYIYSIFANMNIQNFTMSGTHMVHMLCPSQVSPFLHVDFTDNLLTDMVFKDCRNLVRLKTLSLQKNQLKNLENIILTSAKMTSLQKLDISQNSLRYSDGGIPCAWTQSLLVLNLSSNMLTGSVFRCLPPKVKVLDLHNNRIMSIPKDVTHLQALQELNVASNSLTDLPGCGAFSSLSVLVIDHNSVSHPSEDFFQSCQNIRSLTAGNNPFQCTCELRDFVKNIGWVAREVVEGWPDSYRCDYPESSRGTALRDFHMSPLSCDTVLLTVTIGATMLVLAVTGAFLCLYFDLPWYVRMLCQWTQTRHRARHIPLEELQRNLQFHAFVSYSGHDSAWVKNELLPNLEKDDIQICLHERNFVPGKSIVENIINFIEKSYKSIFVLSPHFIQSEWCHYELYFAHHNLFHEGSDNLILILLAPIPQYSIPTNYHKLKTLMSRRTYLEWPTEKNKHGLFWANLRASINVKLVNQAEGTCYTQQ
Chain of TLR1/TLR2 (Mus musculus, UniProt Q9EPQ1+Q9QUN7) (Q9QUN7 25-784): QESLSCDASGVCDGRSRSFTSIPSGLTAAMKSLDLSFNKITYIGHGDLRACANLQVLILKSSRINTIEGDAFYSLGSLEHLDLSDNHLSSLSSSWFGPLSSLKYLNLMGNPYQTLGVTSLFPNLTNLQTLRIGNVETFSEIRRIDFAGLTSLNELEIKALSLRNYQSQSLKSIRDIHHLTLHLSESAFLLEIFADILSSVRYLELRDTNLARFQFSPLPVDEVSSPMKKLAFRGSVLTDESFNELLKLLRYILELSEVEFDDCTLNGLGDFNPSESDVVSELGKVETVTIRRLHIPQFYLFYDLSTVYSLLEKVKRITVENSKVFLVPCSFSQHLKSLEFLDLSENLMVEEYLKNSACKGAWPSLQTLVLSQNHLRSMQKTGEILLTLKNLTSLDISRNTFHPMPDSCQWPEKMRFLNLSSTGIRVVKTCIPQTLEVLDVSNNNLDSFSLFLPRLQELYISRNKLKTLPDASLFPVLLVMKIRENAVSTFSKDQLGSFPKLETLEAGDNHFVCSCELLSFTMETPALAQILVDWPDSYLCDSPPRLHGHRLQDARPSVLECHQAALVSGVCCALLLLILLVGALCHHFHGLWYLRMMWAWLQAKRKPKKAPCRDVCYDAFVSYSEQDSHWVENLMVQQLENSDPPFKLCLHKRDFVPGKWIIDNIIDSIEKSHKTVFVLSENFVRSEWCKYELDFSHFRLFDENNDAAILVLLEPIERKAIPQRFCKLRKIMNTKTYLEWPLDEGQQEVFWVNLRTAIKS

Turning to `CC(C)(C)Oc1ccc(C(=O)OCCCCCCCCCCCCNC(=O)[C@@H]2CN(C(=O)c3ccc(C(=O)N4C[C@@H](C(=O)N[C@H]5C[C@@H]5c5ccccc5)[C@H](C(=O)N[C@H]5C[C@@H]5c5ccccc5)C4)cc3)C[C@H]2C(=O)N[C@H]2C[C@@H]2c2ccccc2)cc1` [Compound 76, 12-((3S,4S)-1-(4-((3S,4S)-3,4-Bis(((1S,2R)-2-phenylcyclopropyl)carbamoyl)pyrrolidine-1-carbonyl)benzoyl)-4-(((1S,2R)-2-phenyl-cyclopropyl)carbamoyl)pyrrolidine-3-carboxamido)-dodecyl 4-(tert-butoxy)benzoate], the Emax was under 50% at TLR1/TLR2 [1] and 150% on TLR1/TLR2 [2]. Moreover, the 50% effective concentration (EC50) at TLR1/TLR2 [1] stood at 27 nM; on TLR1/TLR2 [2], 540 nM.

With `CC(C)(C)OC(=O)c1ccc(C(=O)OCCCCCCCCCCCCNC(=O)[C@@H]2CN(C(=O)c3ccc(C(=O)N4C[C@@H](C(=O)N[C@H]5C[C@@H]5c5ccccc5)[C@H](C(=O)N[C@H]5C[C@@H]5c5ccccc5)C4)cc3)C[C@H]2C(=O)N[C@H]2C[C@@H]2c2ccccc2)cc1` [Compound 77, 12-((3S,4S)-1-(4-((3S,4S)-3,4-Bis(((1S,2R)-2-phenylcyclopropyl)carbamoyl)pyrrolidine-1-carbonyl)benzoyl)-4-(((1S,2R)-2-phenyl-cyclopropyl)carbamoyl)pyrrolidine-3-carboxamido)-dodecyl tert-butyl terephthalate], at TLR1/TLR2 [1], the Emax came to 90% and the concentration for a half-maximal effect (EC50) was 165 nM. At TLR1/TLR2 [2], the Emax was determined as 190% and the 50% effective concentration (EC50) turned out to be 785 nM.

With `O=C(O)c1ccc(C(=O)OCCCCCCCCCCCCNC(=O)[C@@H]2CN(C(=O)c3ccc(C(=O)N4C[C@@H](C(=O)N[C@H]5C[C@@H]5c5ccccc5)[C@H](C(=O)N[C@H]5C[C@@H]5c5ccccc5)C4)cc3)C[C@H]2C(=O)N[C@H]2C[C@@H]2c2ccccc2)cc1` [Compound 78, 4-(((12-((3S,4S)-1-(4-((3S,4S)-3,4-Bis(((1S,2R)-2-phenylcyclopropyl)carbamoyl)pyrrolidine-1-carbonyl)benzoyl)-4-(((1S,2R)-2-phenylcyclopropyl)-carbamoyl)pyrrolidine-3-carboxamido)-dodecyl)oxy)carbonyl)benzoic acid], the Emax came out at 100% at TLR1/TLR2 [1] and 120% at TLR1/TLR2 [2]. Also, the concentration for a half-maximal effect (EC50) on TLR1/TLR2 [1] is 0.69 nM; at TLR1/TLR2 [2], 2.1 nM.

Regarding `CC(C)(C)OC(=O)c1ccc(C(=O)NCC(=O)OCCCCCCCCCCCCNC(=O)[C@@H]2CN(C(=O)c3ccc(C(=O)N4C[C@@H](C(=O)N[C@H]5C[C@@H]5c5ccccc5)[C@H](C(=O)N[C@H]5C[C@@H]5c5ccccc5)C4)cc3)C[C@H]2C(=O)N[C@H]2C[C@@H]2c2ccccc2)cc1` [Compound 79, tert-Butyl 4-((2-((12-((3S,4S)-1-(4-((3S,4S)-3,4-bis-(((1S,2R)-2-phenylcyclopropyl)carbamoyl)-pyrrolidine-1-carbonyl)benzoyl)-4-(((1S,2R)-2-phenylcyclopropyl)-carbamoyl)pyrrolidine-3-carboxamido)dodecyl)oxy)-2-oxoethyl)carbamoyl)benzoate], at TLR1/TLR2 [1], the Emax worked out at 100% and the EC50 is 6.6 nM. Further, at TLR1/TLR2 [2], the Emax was 130% and the EC50 came out at 465 nM.

Take `O=C(CNC(=O)c1ccc(C(=O)O)cc1)OCCCCCCCCCCCCNC(=O)[C@@H]1CN(C(=O)c2ccc(C(=O)N3C[C@@H](C(=O)N[C@H]4C[C@@H]4c4ccccc4)[C@H](C(=O)N[C@H]4C[C@@H]4c4ccccc4)C3)cc2)C[C@H]1C(=O)N[C@H]1C[C@@H]1c1ccccc1` [Compound 80, 4-((2-((12-((3S,4S)-1-(4-((3S,4S)-3,4-Bis(((1S,2R)-2-phenylcyclopropyl)carbamoyl)pyrrolidine-1-carbonyl)-benzoyl)-4-(((1S,2R)-2-phenylcyclopropyl)carbamoyl)-pyrrolidine-3-carboxamido)-dodecyl)oxy)-2-oxoethyl)carbamoyl)benzoic acid]: on TLR1/TLR2 [1], the Emax amounted to 100% and the EC50 turned out to be 0.17 nM. Further, at TLR1/TLR2 [2], the Emax worked out at 60% and the EC50 amounted to 5 nM.

By EC50 is commonly meant the concentration needed to bring the measured effect to its halfway point.
